Literature values, collected in patent US20090110724A1, “COMPOSITIONS AND METHODS FOR TREATMENT OF PAIN” (Everett Laboratories, Inc., priority 2007, published 2009).

What was measured:
COX-3 = details: Simmons et al. 2002
[1] = cold water

Row | Compound | inhibition of COX-3 (COX-3) | solubility [1]
1 | CC(=O)Nc1ccc(O)cc1 [acetaminophen, N-(4-hydroxyphenyl)acetamide] | strong inhibition | 
2 | C=CCC1(CC(C)C)C(=O)NC(=O)NC1=O [Butalbital, 5-allyl-5-isobutylbarbituric acid] |  | slightly soluble
